Measured values taken from US7084301B2 (Ranbaxy Laboratories Limited, priority 2003, dated 2006).
Read-outs that look alike come from different tables or passages of the source.

Key:
[1] = molecular target: T1, rat α1A-adrenoceptor (prostate) (Rattus norvegicus, UniProt P43140); assay: In-vitro functional study, agonist-induced contractile response on isolated rat prostate; type: biochemical
T1 sequence (P43140 1-466): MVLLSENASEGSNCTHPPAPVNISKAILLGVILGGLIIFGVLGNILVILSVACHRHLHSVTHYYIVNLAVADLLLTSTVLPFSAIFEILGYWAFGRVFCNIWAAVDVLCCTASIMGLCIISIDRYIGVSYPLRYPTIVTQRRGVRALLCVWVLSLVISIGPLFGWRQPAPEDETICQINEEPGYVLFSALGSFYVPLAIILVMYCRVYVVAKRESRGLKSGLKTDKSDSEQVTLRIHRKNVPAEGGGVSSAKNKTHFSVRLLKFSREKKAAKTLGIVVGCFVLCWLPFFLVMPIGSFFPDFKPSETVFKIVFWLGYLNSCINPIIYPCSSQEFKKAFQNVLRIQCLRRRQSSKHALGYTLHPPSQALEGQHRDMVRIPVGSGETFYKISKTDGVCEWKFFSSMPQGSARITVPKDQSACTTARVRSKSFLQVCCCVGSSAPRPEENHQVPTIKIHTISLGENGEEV
Experimental: Aorta, prostate and spleen tissues were isolated from urethane anaesthetized (1.5 gm/kg) male wistar rats. […] A resting tension of 2 g (aorta) or 1 g (spleen and prostate) was applied to tissues. Contractile response was monitored using a force displacement transducer and recorded on chart recorders. Tissues were allowed to equilibrate for 2 hours. At the end of equilibration period, concentration response curves to norepinephrine (aorta) and phenylepinephrine (spleen and prostate) were obtained in absence and presence of tested compound (at concentrations of […]). Antagonist affinities were calculated and expressed as pKB vales in Table II.
(§1) To compare the differences in pKB at the α1-arenrenoceptor subtypes one-way ANOVA followed by Dunett ‘t’ test was applied. A p<0.05 was considered statistically significant.

[2] = molecular target: T2, rat α1B-adrenoceptor (spleen) (Rattus norvegicus, UniProt P15823); assay: In-vitro functional study, agonist-induced contractile response on isolated rat spleen; type: biochemical
T2 sequence (P15823 1-515): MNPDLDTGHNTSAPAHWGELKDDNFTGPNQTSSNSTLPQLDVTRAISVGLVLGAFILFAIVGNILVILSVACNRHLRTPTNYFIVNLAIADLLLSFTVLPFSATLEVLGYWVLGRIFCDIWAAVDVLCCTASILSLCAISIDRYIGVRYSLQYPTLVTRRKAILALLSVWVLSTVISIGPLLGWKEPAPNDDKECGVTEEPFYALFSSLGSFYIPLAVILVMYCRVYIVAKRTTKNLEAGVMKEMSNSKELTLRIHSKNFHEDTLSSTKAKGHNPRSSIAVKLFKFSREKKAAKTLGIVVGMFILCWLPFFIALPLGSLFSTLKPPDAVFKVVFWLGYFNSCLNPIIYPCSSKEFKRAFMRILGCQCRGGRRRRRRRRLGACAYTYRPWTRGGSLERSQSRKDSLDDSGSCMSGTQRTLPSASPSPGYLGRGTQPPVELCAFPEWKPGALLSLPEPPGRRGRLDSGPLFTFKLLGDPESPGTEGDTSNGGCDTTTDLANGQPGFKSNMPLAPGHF
Experimental: (§2) Aorta, prostate and spleen tissues were isolated from urethane anaesthetized (1.5 gm/kg) male wistar rats. Isolated tissues were mounted in organ bath containing Krebs Henseleit buffer of following compostion (mM): NaCl 118; KCl 4.7; CaCl2 2.5; MgSO4.7H2O 1.2; NaHCO3 25; KH2PO4 1.2; glucose 11.5. Buffer was maintained at 37° C. and aerated with a mixture of 95% O2 and 5% CO2. A resting tension of 2 g (aorta) or 1 g (spleen and prostate) was applied to tissues. Contractile response was monitored using a force displacement transducer and recorded on chart recorders. Tissues were allowed to equilibrate for 2 hours. At the end of equilibration period, concentration response curves to norepinephrine (aorta) and phenylepinephrine (spleen and prostate) were obtained in absence and presence of tested compound (at concentrations of […]). Antagonist affinities were calculated and expressed as pKB vales in Table II.
as §1

D-3 receptors [3] = molecular target: T3, D-3 receptors (Homo sapiens, UniProt P35462); assay: Radioligand-receptor binding assay, human recombinant D3 receptors, [3H]Spiperone
Experimental: Receptor binding assays were performed using human recombinant D3 receptors. […] Non-specific binding was defined by 25 μM S(−)Sulpiride.

[4] = system: anaesthetised normotensive rats; assay: Hypotensive effect in anaesthetised normotensive rats; type: in vivo, rat; conditions: for effect on blood pressure / effect on heart rate accompanying fall in blood pressure: anaesthetised normotensive rats, cumulative 0.01-10 μg/kg; for ED20: Effective dose to produce a fall in blood pressure by 20%: urethane-anaesthetised male normotensive rats, cumulative doses via femoral vein
Experimental: Male normotensive rats were anaesthetised with urethane (1.2 g/kg, i.p.). Carotid artery and femoral vein were cannulated for recording blood pressure and administration of test compounds respectively. Trachea was cannulated to maintain the airway patency. Rats were divided into two groups of 10 rats each. Group I received compound of Formula I, and Group II received Tamsulosin. Compounds were administered cumulatively at dose level of 0.01, 0.03, 0.1, 0.3, 1 & 10 μg/kg and effects on blood pressure and heart rate were monitored. Each subsequent dose in cumulative dose range was administered after previous response had stabilized.
Blood pressure and heart rate were recorded before and after drug treatment on a Grass polygraph using a Statham pressure transducer and tachograph. Effect on blood pressure was expressed as percentage change from the basal level. ED20 was calculated by fitting the cumulative dose response data in non-linear regression analysis and the value was taken from the curve. Effect on heart rate was expressed as change in beats/min.
To compare the difference amongst the dose groups one-way ANOVA followed by Dunett ‘t’ test was applied. A p of <0.05 was considered statistically significant.

D-3 receptors [5] = molecular target: T3, D-3 receptors; conditions: reported, J. Med. Chem. 2000; cited from earlier work
[6] = molecular target: T4, rat α1D-adrenoceptor (aorta) (Rattus norvegicus, UniProt P23944); assay: In-vitro functional study, agonist-induced contractile response on isolated rat aorta; type: biochemical
T4 sequence (P23944 1-561): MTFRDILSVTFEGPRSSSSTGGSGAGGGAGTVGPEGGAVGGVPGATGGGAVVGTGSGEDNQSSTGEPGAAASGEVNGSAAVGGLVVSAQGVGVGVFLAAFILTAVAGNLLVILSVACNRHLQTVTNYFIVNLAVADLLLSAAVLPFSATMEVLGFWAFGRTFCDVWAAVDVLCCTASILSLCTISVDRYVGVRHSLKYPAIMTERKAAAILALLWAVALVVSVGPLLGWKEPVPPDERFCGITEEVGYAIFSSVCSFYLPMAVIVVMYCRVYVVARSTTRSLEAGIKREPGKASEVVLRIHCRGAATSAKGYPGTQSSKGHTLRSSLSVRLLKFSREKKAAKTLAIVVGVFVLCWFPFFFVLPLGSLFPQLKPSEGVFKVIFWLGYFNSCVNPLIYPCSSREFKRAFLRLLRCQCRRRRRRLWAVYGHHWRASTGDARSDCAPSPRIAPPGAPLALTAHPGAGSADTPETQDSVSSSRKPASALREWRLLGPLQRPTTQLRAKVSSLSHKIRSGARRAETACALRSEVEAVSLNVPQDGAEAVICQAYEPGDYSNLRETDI
Experimental: as §2, §1

T3 sequence (P35462 whole entry): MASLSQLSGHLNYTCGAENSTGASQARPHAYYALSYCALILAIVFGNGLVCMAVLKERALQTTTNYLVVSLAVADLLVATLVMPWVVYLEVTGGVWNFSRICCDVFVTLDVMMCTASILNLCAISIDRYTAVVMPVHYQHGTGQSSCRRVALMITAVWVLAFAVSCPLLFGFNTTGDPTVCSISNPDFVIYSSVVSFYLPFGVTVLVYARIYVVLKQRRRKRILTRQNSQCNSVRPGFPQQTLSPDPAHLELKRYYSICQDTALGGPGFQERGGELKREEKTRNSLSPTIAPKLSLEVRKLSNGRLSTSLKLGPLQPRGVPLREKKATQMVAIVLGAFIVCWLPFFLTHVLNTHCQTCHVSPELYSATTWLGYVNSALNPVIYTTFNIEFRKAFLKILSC

Question: With `CCOc1ccccc1OCCNC(C)Cc1ccc(OC)c(S(N)(=O)=O)c1` (single isomer, unassigned; (-)) [Tamsulosin, (−) isomer of 5-[2-[2-(2-ethoxyphenoxy)ethylamino]-2-methylethyl]-2-methoxybenzene sulfonamide, reference compound] as the molecule, how does the Kb ([1]; rat prostate, phenylepinephrine-induced contraction, read-out: pKB α1A (converted)) read?
Answer: 0.0309 nM

Question: And the Kb ([2]; rat spleen, phenylepinephrine-induced contraction, *p < 0.05 vs pKB at prostate tissue, read-out: pKB α1B (converted))?
Answer: 0.275 nM

Question: And the Ki (D-3 receptors [3])?
Answer: 0.282 nM

Question: And the “effect on blood pressure” value [4]?
Answer: dose dependent fall in blood pressure

Question: And the “effect on heart rate accompanying fall in blood pressure” value [4]?
Answer: decrease in the heart rate

Question: And the “ED20: Effective dose to produce a fall in blood pressure by 20%” value [4]?
Answer: 0.3 µg/kg

Question: And the “affinity for D-3 receptors” value (D-3 receptors [5])?
Answer: subnanomolar affinity

Question: For `CCOc1ccccc1OCCN[C@H](C)Cc1ccc(O)c(S(N)(=O)=O)c1` [Formula I, R (−)-5-[2-[[2-(2-ethoxyphenoxy)ethyl]amino]propyl]-2-hydroxybenzenesulfonamide], which Kb [1] is on record?
Answer: 0.0162 nM

Question: What about the “α1A versus α1B selectivity” value ([1]; functional assays, rat tissues) of the same molecule?
Answer: 31 fold

Question: And the Kb [2]?
Answer: 0.501 nM

Question: And the Kb [6]?
Answer: 0.00589 nM

Question: What about the Ki (D-3 receptors [3]) of the same molecule?
Answer: 1.78 nM

Question: And the “fold greater α1A versus D3 selectivity as compared to tamsulosin” value (D-3 receptors [3]; Table I and IV)?
Answer: 14 fold

Question: What about the “fold lower affinity for D3 receptors than tamsulosin” value (D-3 receptors [3]; human recombinant receptors) of the same molecule?
Answer: 6 fold

Question: And the “effect on blood pressure” value [4]?
Answer: dose dependent fall in blood pressure

Question: What about the “effect on heart rate accompanying fall in blood pressure” value [4] of the same molecule?
Answer: increase in heart rate

Question: What about the “ED20: Effective dose to produce a fall in blood pressure by 20%” value [4] of the same molecule?
Answer: 0.52 µg/kg
